Assay results: patent US10052331B2, “3-(3H-imidazo[4,5-C]pyridin-2-yl)-1H-pyrazolo[3,4-C]pyridine and therapeutic uses thereof” (Samumed, LLC, priority 2014, dated 2018)
pEC50, pIC50: −log10 of the molar value.

Tests used:
[1] = tested on: primary human fibroblasts derived from IPF patients (LL29 cells); assay: Inhibition of fibrotic process: αSMA staining in TGF-β1-treated primary human fibroblasts from IPF patients (LL29 cells); type: cell-based; settings: Fibroblast, 96 h, LL29 cells treated with TGF-β1 (20 ng/mL), 4 days, 11-point dose-response from 10 μM to 1.87 nM, read-out: Inhibition of fibrosis EC50
Procedure, shortened: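 LL29 IPF lung fibroblasts in F12 with 1% FBS, compound (11-point, 10 μM to 1.87 nM, 0.1% DMSO) plus TGF-β1 20 ng/mL for 4 days at 37° C. αSMA-positive % of SYTOX-negative cells by immunofluorescence imaging, normalized to TGF-β1 wells; EC50 from non-linear regression of triplicates.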

[2] = tested on: Wnt activity (Wnt-responsive Sp5 promoter-luciferase reporter in SW480 cells); assay: Wnt activity screening assay: Sp5-Luc reporter gene in SW480 colon carcinoma cells; type: cell-based; settings: Homo sapiens
Procedure, shortened: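 IC50 values come from variable-slope four-parameter fits of luciferase signal normalized to DMSO wells. Stable Sp5-Luc reporter SW480 colon carcinoma cells were exposed to compounds in a 3-fold dilution series (source plates from 10 mM stock) for forty-two hours at 37 °C.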

SMILES	pEC50 [1]	pIC50 [2]
CCCC(=O)Nc1cncc(-c2cc3c(-c4nc5c(-c6ccc(C)s6)cncc5[nH]4)n[nH]c3cn2)c1 [Compound 355, N-(5-(3-(7-(5-Methylthiophen-2-yl)-3H-imidazo[4,5-c]pyridin-2-yl)-1H-pyrazolo[3,4-c]pyridin-5-yl)pyridin-3-yl)butyramide]	6.83	8.19
CCCCC(=O)Nc1cncc(-c2cc3c(-c4nc5c(-c6ccc(C)s6)cncc5[nH]4)n[nH]c3cn2)c1 [Compound 356, N-(5-(3-(7-(5-Methylthiophen-2-yl)-3H-imidazo[4,5-c]pyridin-2-yl)-1H-pyrazolo[3,4-c]pyridin-5-yl)pyridin-3-yl)pentanamide]	6.96	7.75
Cc1ccc(-c2cncc3[nH]c(-c4n[nH]c5cnc(-c6cncc(NC(=O)C7CCCC7)c6)cc45)nc23)s1 [Compound 359, N-(5-(3-(7-(5-Methylthiophen-2-yl)-3H-imidazo[4,5-c]pyridin-2-yl)-1H-pyrazolo[3,4-c]pyridin-5-yl)pyridin-3-yl)cyclopentanecarboxamide]	6.16	7.47
Cc1ccncc1-c1cc2c(-c3nc4c(-c5cc(F)cc(CNS(C)(=O)=O)c5)cncc4[nH]3)n[nH]c2cn1 [Compound 395, N-(3-Fluoro-5-(2-(5-(4-methylpyridin-3-yl)-1H-pyrazolo[3,4-c]pyridin-3-yl)-3H-imidazo[4,5-c]pyridin-7-yl)benzyl)methanesulfonamide]	≥ 8.05	7.33
CS(=O)(=O)NCc1cc(F)cc(-c2cncc3[nH]c(-c4n[nH]c5cnc(-c6cncc(NC(=O)c7ccccc7)c6)cc45)nc23)c1 [Compound 401, N-(5-(3-(7-(3-Fluoro-5-(methylsulfonamidomethyl)phenyl)-3H-imidazo[4,5-c]pyridin-2-yl)-1H-pyrazolo[3,4-c]pyridin-5-yl)pyridin-3-yl)benzamide]	≤ 5.00	6.11
CS(=O)(=O)NCc1cc(F)cc(-c2cncc3[nH]c(-c4n[nH]c5cnc(-c6cncc(NC(=O)C7CCC7)c6)cc45)nc23)c1 [Compound 410, N-(5-(3-(7-(3-Fluoro-5-(methylsulfonamidomethyl)phenyl)-3H-imidazo[4,5-c]pyridin-2-yl)-1H-pyrazolo[3,4-c]pyridin-5-yl)pyridin-3-yl)cyclobutanecarboxamide]	6.32	7.53
CS(=O)(=O)NCc1cc(F)cc(-c2cncc3[nH]c(-c4n[nH]c5cnc(-c6cncc(CNCc7ccccc7)c6)cc45)nc23)c1 [Compound 413, N-(3-(2-(5-(5-((Benzylamino)methyl)pyridin-3-yl)-1H-pyrazolo[3,4-c]pyridin-3-yl)-3H-imidazo[4,5-c]pyridin-7-yl)-5-fluorobenzyl)methanesulfonamide]	≤ 5.00	7.24
CS(=O)(=O)NCc1cc(F)cc(-c2cncc3[nH]c(-c4n[nH]c5cnc(-c6cncnc6)cc45)nc23)c1 [Compound 416, N-(3-Fluoro-5-(2-(5-(pyrimidin-5-yl)-1H-pyrazolo[3,4-c]pyridin-3-yl)-3H-imidazo[4,5-c]pyridin-7-yl)benzyl)methanesulfonamide]	≤ 5.00	< 5.00
CN(C)CCNc1cc(F)cc(-c2cncc3[nH]c(-c4n[nH]c5cnc(-c6cncc(N(C)C)c6)cc45)nc23)c1 [Compound 423]	5.69	6.32
CC(C)Nc1cncc(-c2cc3c(-c4nc5c(-c6cc(F)cc(NCCN(C)C)c6)cncc5[nH]4)n[nH]c3cn2)c1 [Compound 428, N^1-(3-Fluoro-5-(2-(5-(5-(isopropylamino)pyridin-3-yl)-1H-pyrazolo[3,4-c]pyridin-3-yl)-3H-imidazo[4,5-c]pyridin-7-yl)phenyl)-N2,N2-dimethylethane-1,2-diamine]	≤ 5.00	6.76
CCCCC(=O)Nc1cncc(-c2cc3c(-c4nc5c(-c6cc(F)cc(NCCN(C)C)c6)cncc5[nH]4)n[nH]c3cn2)c1 [Compound 434, N-(5-(3-(7-(3-((2-(Dimethylamino)ethyl)amino)-5-fluorophenyl)-3H-imidazo[4,5-c]pyridin-2-yl)-1H-pyrazolo[3,4-c]pyridin-5-yl)pyridin-3-yl)pentanamide]	5.08	6.64
CN(C)CCNc1cc(F)cc(-c2cncc3[nH]c(-c4n[nH]c5cnc(-c6cncc(CNCC7CCCC7)c6)cc45)nc23)c1 [Compound 440, N^1-(3-(2-(5-(5-(((Cyclopentylmethyl)amino)methyl)pyridin-3-yl)-1H-pyrazolo[3,4-c]pyridin-3-yl)-3H-imidazo[4,5-c]pyridin-7-yl)-5-fluorophenyl)-N2,N2-dimethylethane-1,2-diamine]	≥ 8.05	5.92
Fc1cccc(-c2cncc3[nH]c(-c4n[nH]c5cnc(C6CCNCC6)cc45)nc23)c1 [Compound 885, 3-(7-(3-Fluorophenyl)-3H-imidazo[4,5-c]pyridin-2-yl)-5-(piperidin-4-yl)-1H-pyrazolo[3,4-c]pyridine]	≤ 5.00	< 5.00
Fc1cccc(-c2cncc3[nH]c(-c4n[nH]c5cnc(C6=CCNCC6)cc45)nc23)c1 [Compound 886, 3-(7-(3-Fluorophenyl)-3H-imidazo[4,5-c]pyridin-2-yl)-5-(1,2,3,6-tetrahydropyridin-4-yl)-1H-pyrazolo[3,4-c]pyridine]	7.14	5.71
Cc1ncc(-c2cc3c(-c4nc5c(-c6cccc(F)c6)cncc5[nH]4)n[nH]c3cn2)n1C [Compound 889, 5-(1,2-Dimethyl-1H-imidazol-5-yl)-3-(7-(3-fluorophenyl)-3H-imidazo[4,5-c]pyridin-2-yl)-1H-pyrazolo[3,4-c]pyridine]	7.34	6.26
O=C(CC1CCNCC1)Nc1cncc(-c2cc3c(-c4nc5c(-c6cccc(F)c6)cncc5[nH]4)n[nH]c3cn2)c1 [Compound 893, N-(5-(3-(7-(3-Fluorophenyl)-3H-imidazo[4,5-c]pyridin-2-yl)-1H-pyrazolo[3,4-c]pyridin-5-yl)pyridin-3-yl)-2-(piperidin-4-yl)acetamide]	≤ 5.00	< 5.00
Oc1cncc(-c2cc3c(-c4nc5c(-c6cccc(F)c6)cncc5[nH]4)n[nH]c3cn2)c1 [Compound 897, 5-(3-(7-(3-Fluorophenyl)-3H-imidazo[4,5-c]pyridin-2-yl)-1H-pyrazolo[3,4-c]pyridin-5-yl)pyridin-3-ol]	7.49	7.23
Fc1cccc(-c2cncc3[nH]c(-c4n[nH]c5cnc(-c6ccncc6)cc45)nc23)c1 [Compound 900, 3-(7-(3-Fluorophenyl)-3H-imidazo[4,5-c]pyridin-2-yl)-5-(pyridin-4-yl)-1H-pyrazolo[3,4-c]pyridine]	≥ 8.05	7.19
Fc1cccc(-c2cncc3[nH]c(-c4n[nH]c5cnc(-c6ccccn6)cc45)nc23)c1 [Compound 901, 3-(7-(3-Fluorophenyl)-3H-imidazo[4,5-c]pyridin-2-yl)-5-(pyridin-2-yl)-1H-pyrazolo[3,4-c]pyridine]	6.23	6.09
CC(C)CC(=O)Nc1cncc(-c2cc3c(-c4nc5c(-c6cc(O)cc(F)c6)cncc5[nH]4)n[nH]c3cn2)c1 [Compound 1280, N-(5-(3-(7-(3-Fluoro-5-hydroxyphenyl)-3H-imidazo[4,5-c]pyridin-2-yl)-1H-pyrazolo[3,4-c]pyridin-5-yl)pyridin-3-yl)-3-methylbutanamide]	≥ 8.05	< 5.00
COc1cc(F)cc(-c2cncc3[nH]c(-c4n[nH]c5cnc(-c6cncc(NC(=O)CC(C)C)c6)cc45)nc23)c1 [Compound 1324, N-(5-(3-(7-(3-Fluoro-5-methoxyphenyl)-3H-imidazo[4,5-c]pyridin-2-yl)-1H-pyrazolo[3,4-c]pyridin-5-yl)pyridin-3-yl)-3-methylbutanamide]	≥ 8.05	6.26
CN(C)CC(=O)Nc1cncc(-c2cc3c(-c4nc5c(-c6cccc(F)c6)cncc5[nH]4)n[nH]c3cn2)c1 [Compound 1367, 2-(Dimethylamino)-N-(5-(3-(7-(3-fluorophenyl)-3H-imidazo[4,5-c]pyridin-2-yl)-1H-pyrazolo[3,4-c]pyridin-5-yl)pyridin-3-yl)acetamide]	6.84	6.29
